Reference: US20250018019A1, “TREATMENT OF INTERFERON DRIVEN INFLAMMATION” (The Provost, Fellows, Foundation Scholars and the other …, priority 2023, published 2025)
Where a name gives a salt, the structure may show the parent alone.

What was measured:
[1] = system: BMDMs; experiment: RT-qPCR gene expression in BMDMs; format: cell-based, mouse; conditions: for IL-1β expression / Il10 expression / Tnfa expression: BMDMs pre-treated 3 h; for Ifnb1 expression following Nrf2 silencing: Nrf2 siRNA
Protocol: All compounds used DMSO as a vehicle except for 4-hydroxy tamoxifen (EtOH), NAC (PBS), and AOAA for tracing experiments (Media). LPS was used at a concentration of 100 ng/ml for indicated timepoints (2, 3, 4, 6, 8, 24, 48 h). FHIN1 (10 or 20 μM), MMF (50 or 100 μM), DMF (25 μM), AOAA (5 mM), oligomycin (10 μM), CCCP (50 μM) NAC (1 mM), and IMT1 (10 μM) pre-treatments were performed for 3 h prior the addition of LPS. Cells were treated with valinomycin (10 nM) 15 mins before LPS stimulation. Anti-CD210 or IgG control (10 μg/ml) antibodies were added to cells 1 h prior to LPS stimulation. Recombinant mouse IL-10 protein (100 ng/ml) was added to cells at the same time as LPS. Cells were treated with IFN-B1 (220 ng/ml) for 3 h. Cells were treated with C-178 (1 μM) 1 h prior to LPS stimulation or transfection with 2′3′-cGAMP (1.5 μg/ml) for 4 hrs to achieve cGAS-STING activation. Cells were treated with ODN 2088 (1 μM) for 1 hr prior to LPS stimulation or transfection with CPG ODN 1826 (1.5 μg/ml) to achieve TLR9 activation. 3 different timepoints of 4-hydroxy tamoxifen (TAM) (600 nM or 2 μM) or EtOH treatment were performed-these are specified in the individual figure legends. For ‘48 h’ treatments EtOH/TAM was added on day 5 of 6 during the BMDM differentiation protocol. On day 6 they were plated with EtOH/TAM (left overnight) and treated the following day. For ‘72 h’ treatments EtOH/TAM was added on day […] of 6 during the BMDM differentiation protocol. On day 6 they were plated with EtOH/TAM (left overnight) and treated the following day. For ‘96 h’ treatments EtOH/TAM was added on day […] of 6 during the BMDM differentiation protocol. On day 6 they were plated with EtOH/TAM and treated 2 days later.
RNA extraction from cells was carried out using a Purelink™ RNA kit (Invitrogen) according to the manufacturer's instructions. BMDMs were treated as required, and following treatment were instantly lysed in 350 μl RNA lysis buffer. Isolated RNA was quantified using a NanoDrop 2000 spectrophotometer, and RNA concentration was normalised to the lowest concentration across all samples with RNAse-free water. If necessary, samples were DNAse-treated after quantification using DNAse I (Thermo Fisher) according to the manufacturer's instructions. Isolated RNA samples were normalised and converted into cDNA using the High-Capacity cDNA Reverse Transcription Kit (Thermo Fisher) according to manufacturer's instructions. 10 μl of RNA (at a maximum concentration of 100 ng/μl) was added to 10 μl of reverse transcription master mix to complete the reaction mixture. Real-time quantitative PCR was performed on the cDNA generated in the previous step, using primers designed in-house and ordered from Eurofins Genomics, as detailed in Table S2. The reaction was performed in a 96-well qPCR plate by a 7500 Fast Real-Time PCR machine (Thermo Fisher). Relative expression (2^−ΔΔCT) was calculated from the CT values for each sample and gene of interest.
Pre-designed silencer select siRNAs for Cgas (s103166), Tmem173 (s91058), Tlr3 (s100579), Tlr9 (s96268), As/(s99640), Tlr7 (s100720), Ddx58 (s106376), Ifih1 (s89787), Nrf2 (s70522), Atf4 (s62689) and negative control (4390843) were ordered from Thermo Fisher. siRNA sequences are given in Table S2. Cells were transfected with 50 nM siRNA using 5 μl lipofectamine RNAiMAX according to manufacturer's instructions (Thermo Fisher). Cells were transfected in medium without serum and antibiotics which was replaced with complete medium 8 hours later. Cells were subsequently left for at least a further 12 hours prior to treatment.

[2] = molecular target: T1, c-Fos (Mus musculus, UniProt P01101); experiment: c-Fos activity assay (AP1 transcription factor assay on nuclear extracts); format: cell-based; conditions: BMDMs pre-treated 3 h, LPS 4 h
T1 construct: nuclear extracts were isolated using a Nuclear Extraction Kit; endogenous in cells; host or cells: mouse bone-marrow-derived macrophages (BMDMs), nuclear extract
T1 sequence (P01101 whole entry): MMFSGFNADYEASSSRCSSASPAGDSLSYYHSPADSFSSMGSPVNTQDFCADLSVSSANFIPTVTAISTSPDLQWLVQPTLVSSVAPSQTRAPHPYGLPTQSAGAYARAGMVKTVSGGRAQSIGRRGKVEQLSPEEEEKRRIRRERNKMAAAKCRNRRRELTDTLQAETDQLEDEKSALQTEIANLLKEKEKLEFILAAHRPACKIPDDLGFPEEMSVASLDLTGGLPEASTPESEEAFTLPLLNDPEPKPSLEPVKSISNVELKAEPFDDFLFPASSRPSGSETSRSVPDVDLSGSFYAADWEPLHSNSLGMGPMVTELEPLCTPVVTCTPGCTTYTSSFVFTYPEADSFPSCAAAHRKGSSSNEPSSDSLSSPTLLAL
T1 sequence (P05627 whole entry partner): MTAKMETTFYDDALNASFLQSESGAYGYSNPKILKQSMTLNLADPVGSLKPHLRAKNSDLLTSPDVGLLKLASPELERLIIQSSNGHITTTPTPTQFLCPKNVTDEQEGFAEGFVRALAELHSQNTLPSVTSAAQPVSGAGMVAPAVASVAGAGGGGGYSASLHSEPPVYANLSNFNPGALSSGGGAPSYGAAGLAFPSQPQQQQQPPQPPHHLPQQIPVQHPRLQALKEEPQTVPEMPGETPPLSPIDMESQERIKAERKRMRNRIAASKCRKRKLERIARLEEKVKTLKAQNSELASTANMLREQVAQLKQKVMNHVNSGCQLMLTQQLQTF
Protocol: BMDMs from 3 mice were plated in 10 cm dishes at 0.5×10^6 cells/mL and left overnight. Cells were pre-treated with FHIN1 or DMF (3 h) prior to LPS stimulation (4 h). Upon harvesting, nuclear extracts were isolated using a Nuclear Extraction Kit (ab113474) purchased from Abcam. Nuclear extracts were quantified via BCA assay and standardised. c-Fos relative activity was then quantified using the AP1 transcription factor assay purchased from Abcam (Ab207196) according to the manufacturers protocol.

[3] = system: mice; experiment: LPS-induced inflammation model, serum IFN-β; format: in vivo, mouse; conditions: 50 mg/kg intraperitoneally 1 hour before LPS 2.5 mg/kg, blood 2 hours later
Protocol: 6-week-old male mice were used, and littermates were randomly assigned to experimental groups. Compounds were resuspended in 10% DMSO followed by 90% cyclodextrin/PBS (20% w/v). Mice were injected intraperitoneally with vehicle, FHIN1 or DMF (both 50 mg/kg) at a volume of 200 μl per injection. 1 hour later, mice were injected intraperitoneally with PBS or LPS from E. coli (2.5 mg/kg, Sigma) at a volume of 100 μl per injection. 2 hours later, mice were euthanised and blood was harvested retro-orbitally. Blood was allowed to clot for 30 mins at room temperature before it was centrifuged at 5000×g for 10 mins at 4° C. The serum was removed and IFN-β concentration was determined by ELISA. DuoSet ELISA kits for IL-1β, TNFα, IL-6, IL-10, and GDF15 were purchased from R&D Systems and were carried out according to the manufacturer's instructions with appropriately diluted cell supernatants added to each plate in duplicate or triplicate. IFN-β was determined using DuoSet ELISA kit from R&D Systems or Abcam (ab252363). […] Absorbance at 450 nm was quantified using a FLUOstar Optima plate reader. Corrected absorbance values were calculated by subtracting the background absorbance, and cytokine concentrations were subsequently obtained by extrapolation from a standard curve plotted on GraphPad Prism 9.2.0.

Structure (SMILES): COC(=O)/C=C/C(=O)OC [DMF, dimethyl fumarate]
- IL-1β expression ([1]; LPS 4 h): reduced
- Il10 expression ([1]; LPS 4 h): decreased
- Tnfa expression ([1]; LPS 4 h): increased
- Tmem173 expression ([1]; BMDMs pre-treated, LPS 4 h): Suppression
- Ifnb1 expression following Nrf2 silencing ([1]; BMDMs, LPS 4 h): increased
- c-Fos activation [2]: strongly impaired
- LPS-induced IFN-β release into the serum [3]: no effect

Structure (SMILES): CCOC(=O)[C@@]12CCCC=C1N(Cc1ccc(-c3ccccc3)cc1)C(=O)[C@H]2CC(=O)NC [FHIN1, Fumarate hydratase-IN-1]
- IL-1β expression ([1]; LPS 4 h): reduced
- Il10 expression ([1]; LPS 4 h): decreased
- Tnfa expression ([1]; LPS 4 h): increased
- Ddx58 expression ([1]; BMDMs pre-treated, LPS 4 h): reduced
- Tmem173 expression ([1]; BMDMs pre-treated, LPS 4 h): Suppression
- Ifnb1 expression following Nrf2 silencing ([1]; BMDMs, LPS 4 h): increased
- dependence of the FHIN1 IFN-β increase on NAC-sensitive redox stress (Ifnb1 expression) ([1]; BMDMs, in the presence of NAC, LPS 4 h): independent of NAC-sensitive redox stress
- dependence of FHIN1-driven GDF15 on NRF2 and ATF4 ([1]; BMDMs, silencing of Nrf2 or Atf4, LPS 4 h): partly NRF2-but not ATF4-dependent
- induction of IFN-β (Ifnb1) in MAVS knockout BMDMs ([1]; WT and Mavs−/− BMDMs, LPS 4 h): did not impair
- c-Fos activation [2]: strongly impaired
- LPS-induced IFN-β release into the serum [3]: increased
